Reference: PubChem BioAssay AID1996
Converted amounts (≈) assume the structure as drawn.

conditions: buffer; pH 7.4; 200.0 µM

| Compound | solubility kinetic |
| --- | --- |
| Cc1ccc(NC(=O)CCCc2ccccc2)nc1 | 36.6 µg/mL (≈ 144 µM) |
| COc1cccc(-c2nc(N3CCCC3)c3ccccc3n2)c1O | < 0.2 µg/mL |
| O=c1c2c([nH]c3ccccc13)CCCCC2 | > 32 µg/mL |
| COc1ccc(C(C)=O)cc1Cc1c(O)[nH]c(=S)[nH]c1=O | > 46 µg/mL |
| COC(=O)c1ccc(COc2ncnc3sccc23)cc1 | 17 µg/mL (≈ 56.6 µM) |
| COC(=O)CC1C(=O)NCCN1C(=S)Nc1ccccc1Cl (centres undefined) | > 51.3 µg/mL |
| CCc1noc(C)c1C(=O)OCC(=O)NCc1ccc(Cl)cc1 | 8.4 µg/mL (≈ 24.9 µM) |
| COCCSc1ccccc1C(=O)NCc1cccnc1 | > 45.4 µg/mL |
| O=C(CCc1ccc(S(=O)(=O)N2CCOCC2)cc1)OCC(=O)c1ccccc1F | 49.6 µg/mL (≈ 114 µM) |
| O=C(COC(=O)CCC(=O)c1cccs1)NC1CC1 | > 42.2 µg/mL |
| CCCCn1c(NC(=O)c2ccco2)c(S(=O)(=O)c2ccc(C)cc2)c2nc3ccccc3nc21 | 20.2 µg/mL (≈ 41.3 µM) |
| COc1cc2c(cc1OC)C(c1ccc(C)cc1)NC(=O)C2 (centres undefined) | 42.5 µg/mL (≈ 143 µM) |
| Cc1ccc(C(=O)NCCCNC(=O)COc2ccc(Cl)cc2)cn1 | 49.7 µg/mL (≈ 137 µM) |
| CCC(=O)c1ccc(OC(C)C(=O)NC2(C#N)CCCCC2)cc1 (centres undefined) | 25 µg/mL (≈ 76.1 µM) |
| COc1ccc(OCc2csc(N)n2)cc1 | > 35.4 µg/mL |
| O=C(Nc1ccc(N2CCN(C(=O)c3cccs3)CC2)cc1)c1ccco1 | 1.6 µg/mL (≈ 4.19 µM) |
| Cc1c(C)n(-c2ccc(Cl)cc2)c2ncnc(N)c12 | 7.4 µg/mL (≈ 27.1 µM) |
| CCOc1cc(C(=O)Nc2ccc(N3CCOCC3)cc2)cc(Br)c1OC | 2 µg/mL (≈ 4.59 µM) |
| Cn1c(=O)c2c(ncn2CC(=O)OCC(=O)Nc2ccc(F)cc2Cl)n(C)c1=O | > 63.6 µg/mL |
| Cc1ccc(NC(=O)c2ccc3[nH]c(=O)c(=O)[nH]c3c2)nc1 | 8.7 µg/mL (≈ 29.4 µM) |

| Compound | solubility kinetic |
| --- | --- |
| O=c1[nH]c2ccc(Cl)cc2c(-c2ccccc2)c1[N+](=O)[O-] | < 0.3 µg/mL |
| CC(C)(C)NC(=O)NC(=O)CN1CCN(Cc2ccccc2)CC1 | 45.3 µg/mL (≈ 136 µM) |
| CCN(CC)CCOC(=O)C(c1ccccc1)C1CCCCC1.Cl (centres undefined) | > 53.1 µg/mL |
| CCOc1ccc(S(=O)(=O)N2CCNC(=O)C2)cc1 | > 42.6 µg/mL |
| C=CCNC(=O)C(=O)Nc1cc2c3c(c1)CCC(=O)N3CCC2 | > 47 µg/mL |
| CC(=O)c1cccc(NC(=O)c2cc(C)nn2-c2ccccc2)c1 | > 47.9 µg/mL |
| CCOc1ncccc1C(=O)OCC(=O)NCc1cccs1 | > 48.1 µg/mL |
| N#CC1(NC(=O)COc2ccccc2[N+](=O)[O-])CCCCC1 | > 45.5 µg/mL |
| O=C(CN1CCC(NC(=O)Nc2ccccc2)CC1)Nc1ccccc1F | 17.5 µg/mL (≈ 47.2 µM) |
| CC(C)(C)NCCOc1ccc2ccccc2c1 | 26.8 µg/mL (≈ 110 µM) |
| Cc1ccc([N+](=O)[O-])cc1NC(=O)CNC1CCCCC1 | 39 µg/mL (≈ 134 µM) |
| CCOC(=O)c1csc(-c2sccc2Br)n1 | 18.7 µg/mL (≈ 58.8 µM) |
| CC1CC(C)CN(S(=O)(=O)c2ccc3oc(=O)ccc3c2)C1 (centres undefined) | 14 µg/mL (≈ 43.6 µM) |
| CC(=O)Nc1ccc(S(=O)(=O)Nc2nccc(C)n2)cc1 | > 46 µg/mL |
| O=S(=O)(c1cnccc1N1CCN(CCO)CC1)N1CCCCC1 | > 53.2 µg/mL |
| CC1CCN(C(=S)NC(=O)c2cccc([N+](=O)[O-])c2)CC1 | 34.2 µg/mL (≈ 111 µM) |
| O=[N+]([O-])c1ccc(Oc2ccc(S(=O)(=O)N3CCOCC3)cc2)cc1 | 18.1 µg/mL (≈ 49.7 µM) |
| Cc1cccc(C)c1N1CCN(C(=O)Cn2cncn2)CC1 | > 44.9 µg/mL |
| Cc1ccc(CSCC(=O)NCc2ccc3c(c2)OCO3)cc1 | 11.5 µg/mL (≈ 34.9 µM) |
| O=C(Nc1ccc(NC(=O)c2ccco2)cc1)c1ccco1 | 2.5 µg/mL (≈ 8.44 µM) |

| Compound | solubility kinetic |
| --- | --- |
| O=S(=O)(c1ccc2ncn(O)c2c1)N1CCOCC1 | > 42.5 µg/mL |
| Cc1cc(C)cc(NC(=O)NCc2c(-c3ccccc3)noc2C)c1 | 0.8 µg/mL (≈ 2.39 µM) |
| CN(Cc1ccccc1)C(=O)COC(=O)/C=C/c1ccco1 | > 44.9 µg/mL |
| CCCCNC(=O)C1CCN(c2nc(C)cc(C)n2)CC1 | 8.9 µg/mL (≈ 30.6 µM) |
| CCCCOC(=O)Nc1ccc(S(=O)(=O)Nc2nccs2)cc1 | 38.1 µg/mL (≈ 107 µM) |
| COc1ccccc1C(=O)NC(=O)CSc1ccc(C)c(C)c1 | 14 µg/mL (≈ 42.5 µM) |
| CC(=O)Nc1ccc(OS(=O)(=O)c2ccccc2C)cc1 | 35.2 µg/mL (≈ 115 µM) |
| CC(C)c1onc(C(=O)Nc2cccc(O)c2)c1[N+](=O)[O-] | 37.4 µg/mL (≈ 128 µM) |
| COc1ccc(OC)c2c1sc(=NC(=O)C1CC1)n2C | 0.9 µg/mL (≈ 3.08 µM) |
| Cc1cc(C)nc(SCC(=O)N(C)C)n1 | 31.7 µg/mL (≈ 141 µM) |
| O=C(NCCNC1CCCCC1)c1ccco1 | 26.2 µg/mL (≈ 111 µM) |
| Cc1ccc(OCC(=O)Nc2ccccc2F)cc1 | 4.6 µg/mL (≈ 17.7 µM) |
| Cc1cccc(Cn2nc(C(C)(C)C)cc2C(=O)N2CCOCC2)c1 | > 51.2 µg/mL |
| COCCCN1CN=C(Nc2nc3ccccc3o2)NC1 | > 43.4 µg/mL |
| O=C(NCc1ccc2c(c1)OCO2)c1cccnc1Cl | 37.9 µg/mL (≈ 130 µM) |
| CCOc1ccc(-n2c(C)c(C(C)=O)c3cc(OC(C)=O)ccc32)cc1 | < 0.8 µg/mL |
| COc1ccc(NC(=O)NC2CCCc3ccccc32)cc1OC (centres undefined) | 1.1 µg/mL (≈ 3.37 µM) |
| O=C(O)C1C2CCC(O2)C1C(=O)Nc1ccc(Br)cc1F (centres undefined) | > 53.7 µg/mL |
| CC(NC(=O)c1cc2ccccc2o1)c1ccccc1 (centres undefined) | 37.6 µg/mL (≈ 142 µM) |
